Active and inactive are the calls of the source. The rule behind the calls is not given here.
What was measured:
[1] = target: Sodium-dependent serotonin transporter (Rattus norvegicus, UniProt P31652); assay: Displacement of [3H]-paroxetine from SERT in rat cerebral cortex incubated for 10 mins by liquid scintillation counting method; type: tissue-based
Transporter = Transporter (Rattus norvegicus, UniProt Q63380); assay: Displacement of [3H]-nisoxetine from NET in rat hippocampal membrane incubated for 8 hrs by liquid scintillation counting method; type: cell membranes, Hippocampus
[2] = target: 5-hydroxytryptamine receptor 2A (Homo sapiens, UniProt P28223); assay: Agonist activity at 5-HT2A in HEK293 cells at 10 uM incubated for 60 mins by FLIPR assay relative to control; type: functional, cell-based
Mus musculus = assay: Antidepressant activity in Kunming mouse chronic unpredictable mild stress model assessed as increase in sucrose preference at 20 mg/kg, IG measured after 1 to 3 weeks; type: functional, organism-based; settings: time 1-3 weeks
[3] = target: Sodium-dependent serotonin transporter (Rattus norvegicus) (UniProt P31652); assay: Antagonist activity at rat cerebral cortex membrane SERT at 10 uM incubated for 10 mins in presence of [3H]5-HT relative to control; type: cell membranes; parameters: scale not given: the % may be the effect or the level left; settings: filed as antagonist
Sequence of Sodium-dependent serotonin transporter (Rattus norvegicus) (P31652 whole entry): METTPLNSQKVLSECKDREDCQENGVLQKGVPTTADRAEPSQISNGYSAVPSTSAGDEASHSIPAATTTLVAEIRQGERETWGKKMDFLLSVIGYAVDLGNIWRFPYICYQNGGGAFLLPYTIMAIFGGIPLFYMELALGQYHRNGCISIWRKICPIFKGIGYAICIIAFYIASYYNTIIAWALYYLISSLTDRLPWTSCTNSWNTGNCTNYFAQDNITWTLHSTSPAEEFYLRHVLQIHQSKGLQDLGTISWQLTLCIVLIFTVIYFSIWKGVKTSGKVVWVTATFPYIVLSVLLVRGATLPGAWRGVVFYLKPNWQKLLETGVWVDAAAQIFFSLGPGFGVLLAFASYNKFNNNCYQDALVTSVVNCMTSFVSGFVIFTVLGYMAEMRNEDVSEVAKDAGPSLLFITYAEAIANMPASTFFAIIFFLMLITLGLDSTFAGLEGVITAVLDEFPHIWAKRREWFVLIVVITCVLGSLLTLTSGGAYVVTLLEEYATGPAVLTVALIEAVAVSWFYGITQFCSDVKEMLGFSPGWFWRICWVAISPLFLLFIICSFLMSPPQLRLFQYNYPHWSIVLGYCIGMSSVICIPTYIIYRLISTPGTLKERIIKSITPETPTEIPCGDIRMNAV

Sequence of Transporter (Q63380 whole entry): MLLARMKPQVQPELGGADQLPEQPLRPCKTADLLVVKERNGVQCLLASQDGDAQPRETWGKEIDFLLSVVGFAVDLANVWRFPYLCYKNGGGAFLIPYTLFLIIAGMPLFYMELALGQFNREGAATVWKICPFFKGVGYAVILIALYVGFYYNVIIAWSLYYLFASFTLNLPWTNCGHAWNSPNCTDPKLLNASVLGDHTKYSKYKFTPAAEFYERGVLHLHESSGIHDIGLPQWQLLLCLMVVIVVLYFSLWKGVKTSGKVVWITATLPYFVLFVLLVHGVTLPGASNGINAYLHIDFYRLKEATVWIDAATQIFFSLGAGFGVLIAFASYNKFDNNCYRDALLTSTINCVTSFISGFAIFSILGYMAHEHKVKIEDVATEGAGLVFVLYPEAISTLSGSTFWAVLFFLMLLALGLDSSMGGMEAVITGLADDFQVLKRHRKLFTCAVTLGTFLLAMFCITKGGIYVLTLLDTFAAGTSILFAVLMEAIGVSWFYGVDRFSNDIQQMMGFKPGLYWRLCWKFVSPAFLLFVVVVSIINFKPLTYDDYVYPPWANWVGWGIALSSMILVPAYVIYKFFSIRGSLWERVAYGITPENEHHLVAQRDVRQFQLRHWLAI
Sequence of Sodium-dependent serotonin transporter (P31652 whole entry): as the sequence (P31652 whole entry) above
Sequence of 5-hydroxytryptamine receptor 2A (P28223 whole entry): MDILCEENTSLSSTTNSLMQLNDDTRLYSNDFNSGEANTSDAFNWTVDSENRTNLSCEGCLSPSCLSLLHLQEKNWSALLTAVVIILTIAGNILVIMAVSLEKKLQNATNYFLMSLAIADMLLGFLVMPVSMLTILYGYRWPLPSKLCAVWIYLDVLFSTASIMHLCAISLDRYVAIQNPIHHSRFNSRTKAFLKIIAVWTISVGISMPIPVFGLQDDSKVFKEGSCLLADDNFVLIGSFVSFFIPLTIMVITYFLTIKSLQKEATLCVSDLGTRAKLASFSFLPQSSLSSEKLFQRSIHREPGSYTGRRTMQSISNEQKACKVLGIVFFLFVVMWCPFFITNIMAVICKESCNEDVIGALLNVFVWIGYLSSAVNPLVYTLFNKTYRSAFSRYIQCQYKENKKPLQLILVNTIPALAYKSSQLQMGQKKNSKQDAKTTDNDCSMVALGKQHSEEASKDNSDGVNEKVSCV

Row | SMILES | Ki [1] [nM] | Ki (Transporter) [nM] | Activity [2] [%] | Activity (Mus musculus) | Activity [3] [%]
1 | COc1ccc(C(CCN(C)C)Oc2cccc3c2OCO3)cc1OC (stereo not drawn) | 245 | 222 |  |  | 
2 | NCCc1c[nH]c2ccc(O)cc12 |  |  | 5.6 |  | 
3 | CN(C)CCC(Oc1cccc2c1OCO2)c1ccccc1F (stereo not drawn) | 28 | 17.2 |  |  | 
4 | CN(C)CCC(Oc1cccc2c1OCO2)c1ccc(Cl)cc1 (stereo not drawn) | 19.9 | 10.4 |  |  | 
5 | CN(C)CCC(Oc1cccc2c1OCO2)c1ccc(F)c(F)c1 (stereo not drawn) | 237 | 139 |  |  | 
6 | COc1ccc(C(CCN(C)C)Oc2cccc3c2OCO3)cc1 (stereo not drawn) | 189 | 218 |  |  | 
7 | CNCCC(Oc1cccc2c1OCO2)c1ccc(OC)c(OC)c1 (stereo not drawn) | 217 | 19.9 |  |  | 
8 | CNCCC(Oc1cccc2c1OCO2)c1ccc(F)c(F)c1 (stereo not drawn) | 96.3 | 6.6 |  |  | 
9 | CNCCC(Oc1cccc2c1OCO2)c1ccc(Cl)cc1 (stereo not drawn) | 77.3 | 14.8 |  |  | 
10 | CNCCC(Oc1cccc2c1OCO2)c1ccccc1C (stereo not drawn) | 41.2 | 13.9 |  |  | 
11 | CN(C)CCC(Oc1cccc2c1OCO2)c1cccc(Cl)c1 (stereo not drawn) | 103 | 70.4 |  |  | 
12 | CNCCC(Oc1cccc2c1OCO2)c1ccc(C)cc1 (stereo not drawn) | 17.4 | 48.8 |  |  | 
13 | CNCCC(Oc1cccc2c1OCO2)c1ccccc1Cl (stereo not drawn) | 57.4 | 26.6 |  |  | 
14 | CN(C)CCC(Oc1cccc2c1OCO2)c1ccc(Cl)c(Cl)c1 (stereo not drawn) | 189 | 253 |  |  | 
15 | CNCCC(Oc1cccc2c1OCO2)c1cccc(Cl)c1 (stereo not drawn) | 112 | 4.8 |  |  | 
16 | CNCCC(Oc1ccc(C(F)(F)F)cc1)c1ccccc1 (stereo not drawn) |  |  |  | inactive | 
17 | CN(C)CCC(Oc1cccc2c1OCO2)c1ccccc1 (stereo not drawn) | 98.4 | 29.4 |  |  | 
18 | COc1cccc(C(CCN(C)C)Oc2cccc3c2OCO3)c1 (stereo not drawn) | 203 | 268 |  |  | 
19 | COc1ccccc1C(CCN(C)C)Oc1cccc2c1OCO2 (stereo not drawn) | 221 | 253 |  |  | 
20 | CN(C)CCCC1(c2ccc(F)cc2)OCc2cc(C#N)ccc21 (stereo not drawn) |  |  |  |  | 100
21 | NCCC(Oc1cccc2c1OCO2)c1ccccc1 (stereo not drawn) | 217 | 51 |  |  | 
22 | CNCCC(Oc1cccc2c1OCO2)c1ccc(Cl)c(Cl)c1 (stereo not drawn) | 43.6 | 15 |  |  | 
23 | CNCCC(Oc1cccc2c1OCO2)c1ccc2c(c1)OCO2 (stereo not drawn) | 32.8 | 28.4 |  |  | 
